# Measurements: US10538498B2, “1,3,4-oxadiazole sulfonamide derivative compounds as histone deacetylase 6 inhibitor, and the pharmaceutical composition comprising the same” (Chong Kun Dang Pharmaceutical Corp., priority 2015, dated 2020)
# Assays:
# human recombinant HDAC6 = target: T1, human recombinant HDAC6 (Homo sapiens, UniProt Q9UBN7); assay: HDAC6 enzyme activity inhibition assay (HDAC Fluorimetric Drug Discovery Kit); type: biochemical; conditions: for HDAC6 selectivity (fold): HDAC1 vs HDAC6; for IC50: same protocol as the HDAC1 enzyme activity test
# T1 construct: purchased Calbiochem 382180
# T1 sequence (Q9UBN7 1-1215): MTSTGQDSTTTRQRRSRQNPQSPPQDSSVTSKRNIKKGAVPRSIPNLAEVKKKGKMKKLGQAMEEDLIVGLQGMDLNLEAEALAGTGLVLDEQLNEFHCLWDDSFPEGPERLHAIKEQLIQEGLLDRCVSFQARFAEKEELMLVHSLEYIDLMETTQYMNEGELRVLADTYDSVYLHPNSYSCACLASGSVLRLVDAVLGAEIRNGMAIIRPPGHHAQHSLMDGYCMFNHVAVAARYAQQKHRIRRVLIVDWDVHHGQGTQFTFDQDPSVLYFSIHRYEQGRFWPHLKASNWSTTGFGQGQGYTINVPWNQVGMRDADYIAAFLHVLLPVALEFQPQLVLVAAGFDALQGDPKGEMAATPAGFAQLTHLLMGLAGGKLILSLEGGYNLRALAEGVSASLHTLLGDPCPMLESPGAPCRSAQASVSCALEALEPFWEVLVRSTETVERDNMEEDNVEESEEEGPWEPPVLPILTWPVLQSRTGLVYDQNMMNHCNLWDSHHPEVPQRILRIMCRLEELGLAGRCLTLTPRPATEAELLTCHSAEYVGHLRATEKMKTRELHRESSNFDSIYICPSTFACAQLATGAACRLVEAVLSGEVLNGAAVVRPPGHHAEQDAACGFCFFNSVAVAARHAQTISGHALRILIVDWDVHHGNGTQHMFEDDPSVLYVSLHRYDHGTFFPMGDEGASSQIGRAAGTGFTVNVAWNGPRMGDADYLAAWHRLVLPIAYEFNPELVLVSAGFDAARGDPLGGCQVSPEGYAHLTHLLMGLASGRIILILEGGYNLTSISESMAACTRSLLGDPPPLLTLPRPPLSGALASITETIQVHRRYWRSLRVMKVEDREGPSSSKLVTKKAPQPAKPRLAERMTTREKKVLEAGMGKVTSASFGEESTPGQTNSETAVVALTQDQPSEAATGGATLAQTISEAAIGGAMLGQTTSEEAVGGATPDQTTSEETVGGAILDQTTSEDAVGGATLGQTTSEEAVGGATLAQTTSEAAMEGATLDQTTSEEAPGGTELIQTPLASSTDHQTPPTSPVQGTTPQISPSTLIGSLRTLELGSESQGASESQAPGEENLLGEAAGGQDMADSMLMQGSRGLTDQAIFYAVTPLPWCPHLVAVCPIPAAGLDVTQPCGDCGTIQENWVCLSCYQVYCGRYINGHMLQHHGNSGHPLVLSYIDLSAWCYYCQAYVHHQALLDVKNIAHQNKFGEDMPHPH
# Outline: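 Human recombinant enzyme, 0.3 μg, incubated with 10 μM Fluor de Lys-SIRT1 substrate and 5-fold compound dilutions at 30° C for 60 min. Developer II added for 30 min, then fluorescence read (Ex 360/Em 460). IC50 values derived from the fluorescence data.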
# human recombinant HDAC1 = target: T2, human recombinant HDAC1 (Homo sapiens, UniProt Q13547); assay: HDAC1 enzyme activity inhibition assay (HDAC Fluorimetric Drug Discovery Kit); type: biochemical; conditions: 0.3 μg enzyme, 10 μM substrate, 30° C., 60 minutes
# T2 construct: purchased Enzo Life Science BML-SE456
# Description: In order to examine the HDAC6 selectivity of the compounds of formula I of the present invention by HDAC1 and HDAC6 enzymatic activity inhibition assays, an experiment was performed using a conventional substance as a control.
# HDAC enzyme activity was measured using a HDAC Fluorimetric Drug Discovery Kit (BML-AK511, 516, Enzo Life Science). For the HDAC1 enzyme activity test, human recombinant HDAC1 (BML-SE456) was used as an enzyme source, and Fluor de Lys®-“SIRT1 (BNL-KI177) was used as a substrate. A 5-fold dilution of the compound was seeded into a 96-well plate, and then 0.3 μg of the enzyme and 10 μM of the substrate were added to each well of the plate and allowed to react at 30° C. for 60 minutes. Then, Fluor de Lys®-Developer II (BML-KI176) was added thereto and allowed to react for 30 minutes, after which the fluorescence value (Ex 360, Em 460) was measured using a multi-plate reader (Flexstation 3, Molecular Device). The HDAC6 enzyme was tested using human recombinant HDAC6 (382180) (Calbiochem) according to the same protocol as the HDAC1 enzyme activity test method. Based on the resulting values, each IC50 value was calculated using GraphPad Prism4.0 program.
# T2 sequence (Q13547 whole entry): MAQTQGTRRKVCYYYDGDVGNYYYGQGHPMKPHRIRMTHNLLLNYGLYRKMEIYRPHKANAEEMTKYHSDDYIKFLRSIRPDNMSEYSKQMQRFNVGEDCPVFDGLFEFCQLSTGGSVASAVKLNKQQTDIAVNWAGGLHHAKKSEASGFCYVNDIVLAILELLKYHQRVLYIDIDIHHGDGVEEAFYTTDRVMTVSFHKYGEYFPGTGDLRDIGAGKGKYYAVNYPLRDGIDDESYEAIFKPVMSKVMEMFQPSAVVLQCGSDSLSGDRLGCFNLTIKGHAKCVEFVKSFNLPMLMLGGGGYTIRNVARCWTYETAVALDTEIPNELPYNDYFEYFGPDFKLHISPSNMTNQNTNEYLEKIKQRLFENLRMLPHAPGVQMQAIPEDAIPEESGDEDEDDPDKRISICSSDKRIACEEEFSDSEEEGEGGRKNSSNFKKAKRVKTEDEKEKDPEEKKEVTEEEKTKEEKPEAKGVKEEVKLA
HDAC6 selectivity (fold) (human recombinant HDAC6),IC50 (human recombinant HDAC6) [nM],IC50 (human recombinant HDAC1) [µM],SMILES
404,127,51.4,"CS(=O)(=O)N(Cc1ccc(-c2nnc(C(F)(F)F)o2)cc1)c1cccnc1 [Compound 11088, N-(pyridin-3-yl)-N-(4-(5-(trifluoromethyl)-1,3,4-oxadiazol-2-yl)benzyl)methanesulfonamide]"
957,50,47.9,"CS(=O)(=O)N(Cc1ccc(-c2nnc(C(F)(F)F)o2)cc1F)c1cccnc1 [Compound 11089, N-(2-fluoro-4-(5-(trifluoromethyl)-1,3,4-oxadiazol-2-yl)benzyl)-N-(pyridin-3-yl)methanesulfonamide]"
900,38,34.2,"CS(=O)(=O)N(Cc1ccc(-c2nnc(C(F)(F)F)o2)cc1)c1ccccc1 [Compound 11167, N-phenyl-N-(4-(5-(trifluoromethyl)-1,3,4-oxadiazol-2-yl)benzyl)methanesulfonamide]"
1081,38,41.1,"CS(=O)(=O)N(Cc1ccc(-c2nnc(C(F)(F)F)o2)cc1F)c1ccccc1 [Compound 11169, N-(2-fluoro-4-(5-(trifluoromethyl)-1,3,4-oxadiazol-2-yl)benzyl)-N-phenylmethanesulfonamide]"
1267,21,26.6,"CS(=O)(=O)N(Cc1ccc(-c2nnc(C(F)(F)F)o2)cn1)c1ccccc1 [Compound 11171, N-phenyl-N-((5-(5-(trifluoromethyl)-1,3,4-oxadiazol-2-yl)pyridin-2-yl)methyl)methanesulfonamide]"
43,661,28.6,"CS(=O)(=O)N(Cc1ccc(-c2nnc(C(F)(F)F)o2)nc1)c1ccccc1 [Compound 11173, N-phenyl-N-((6-(5-(trifluoromethyl)-1,3,4-oxadiazol-2-yl)pyridin-3-yl)methyl)methanesulfonamide]"
332,57,18.9,"Cc1cccc(N(Cc2ccc(-c3nnc(C(F)(F)F)o3)cc2F)S(C)(=O)=O)c1 [Compound 11177, N-(2-fluoro-4-(5-(trifluoromethyl)-1,3,4-oxadiazol-2-yl)benzyl)-N-(m-tolyl)methanesulfonamide]"

# The remaining lines, values behind:
SMILES,HDAC6 selectivity (fold) (human recombinant HDAC6),IC50 (human recombinant HDAC6) [nM],IC50 (human recombinant HDAC1) [µM]
"COc1cccc(N(Cc2ccc(-c3nnc(C(F)(F)F)o3)cc2F)S(C)(=O)=O)c1 [Compound 11179, N-(2-fluoro-4-(5-(trifluoromethyl)-1,3,4-oxadiazol-2-yl)benzyl)-N-(3-methoxyphenyl)methanesulfonamide]",211,37,7.81
"CS(=O)(=O)N(Cc1ccc(-c2nnc(C(F)F)o2)c(F)c1)c1ccccc1 [Compound 11184, N-(4-(5-(difluoromethyl)-1,3,4-oxadiazol-2-yl)-3-fluorobenzyl)-N-phenylmethanesulfonamide]",63,36,2.27
"Cc1cccc(N(Cc2ccc(-c3nnc(C(F)F)o3)cn2)S(=O)(=O)C2CCN(C3CN(C(C)C)C3)CC2)c1 [Compound 11837, N-((5-(5-(difluoromethyl)-1,3,4-oxadiazol-2-yl)pyridin-2-yl)methyl)-1-(1-isopropylazetidin-3-yl)-N-(m-tolyl)piperidine-4-sulfonamide]",4167,24,–
"CC(=O)N1CC(N2CCC(S(=O)(=O)N(Cc3ccc(-c4nnc(C(F)F)o4)cn3)c3cccc(C)c3)CC2)C1 [Compound 11838, 1-(1-acetylazetidin-3-yl)-N-((5-(5-(difluoromethyl)-1,3,4-oxadiazol-2-yl)pyridin-2-yl)methyl)-N-(m-tolyl)piperidine-4-sulfonamide]",2241,44.6,–
"Cc1cccc(N(Cc2ccc(-c3nnc(C(F)F)o3)cn2)S(=O)(=O)C2CCN(C3CN(C(=O)CO)C3)CC2)c1 [Compound 11839, N-((5-(5-(difluoromethyl)-1,3,4-oxadiazol-2-yl)pyridin-2-yl)methyl)-1-(1-(2-hydroxyacetyl)azetidin-3-yl)-N-(m-tolyl)piperidine-4-sulfonamide]",2236,44.7,–
"O=S(=O)(C1CCN(C2CC(F)C2)CC1)N(Cc1ccc(-c2nnc(C(F)F)o2)cc1)c1cccc(Cl)c1 (centres unmarked) [Compound 11840, N-(3-chlorophenyl)-N-(4-(5-(difluoromethyl)-1,3,4-oxadiazol-2-yl)benzyl)-1-(3-fluorocyclobutyl)piperidine-4-sulfonamide]",520,192,–
"O=S(=O)(C1CCN(C2CC(F)C2)CC1)N(Cc1ccc(-c2nnc(C(F)F)o2)cn1)c1cccc(Cl)c1 (centres unmarked) [Compound 11841, N-(3-chlorophenyl)-N-((5-(5-(difluoromethyl)-1,3,4-oxadiazol-2-yl)pyridin-2-yl)methyl)-1-(3-fluorocyclobutyl)piperidine-4-sulfonamide]",2790,35.8,–
"O=S(=O)(CCN1CC=C(c2ccc(Cl)cc2)CC1)N(Cc1ccc(-c2nnc(C(F)F)o2)cc1)c1ccccc1 [Compound 11842, 2-(4-(4-chlorophenyl)-3,6-dihydropyridin-1(2H)-yl)-N-(4-(5-(difluoromethyl)-1,3,4-oxadiazol-2-yl)benzyl)-N-phenylethane-1-sulfonamide]",121,826,–
"O=S(=O)(CCN1Cc2cccc3cccc(c23)C1)N(Cc1ccc(-c2nnc(C(F)F)o2)cc1)c1ccccc1 [Compound 11843, 2-(1H-benzo[de]isoquinolin-2(3H)-yl)-N-(4-(5-(difluoromethyl)-1,3,4-oxadiazol-2-yl)benzyl)-N-phenylethane-1-sulfonamide]",101,994,–
"O=S(=O)(CCN1CCN(c2noc3ccccc23)CC1)N(Cc1ccc(-c2nnc(C(F)F)o2)cc1)c1ccccc1 [Compound 11844, 2-(4-(benzo[d]isoxazol-3-yl)piperazin-1-yl)-N-(4-(5-(difluoromethyl)-1,3,4-oxadiazol-2-yl)benzyl)-N-phenylethane-1-sulfonamide]",172,581,–
"COc1ccccc1C1CCN(CCS(=O)(=O)N(Cc2ccc(-c3nnc(C(F)F)o3)cc2)c2ccccc2)CC1 [Compound 11845, N-(4-(5-(difluoromethyl)-1,3,4-oxadiazol-2-yl)benzyl)-2-(4-(2-methoxyphenyl)piperidin-1-yl)-N-phenylethane-1-sulfonamide]",103,973,–
"NC(=O)[C@@H]1C[C@@H](O)CN1CCS(=O)(=O)N(Cc1ccc(-c2nnc(C(F)F)o2)cn1)c1ccccc1 [Compound 11849, (2S,4R)-1-(2-(N-((5-(5-(difluoromethyl)-1,3,4-oxadiazol-2-yl)pyridin-2-yl)methyl)-N-phenylsulfamoyl)ethyl)-4-hydroxypyrrolidine-2-carboxamide]",1605,62.3,–
